Data: the supplement of paper PMC10307832

The cell lines below were run with O=C(/C=C/c1cccnc1)NCCCCC1CCN(C(=O)c2ccccc2)CC1 [Daporinad] + C[C@]1(O)C[C@@H](c2nc(-c3ccc4ccc(-c5ccccc5)nc4c3)c3c(N)nccn32)C1 [Linsitinib] (partner 1 µM) (assay: relative viability (nuclei count vs DMSO), 5 days (fraction); higher = more cells survive). Details: first compound 0.01581 µM.
Summary of the method: (§1)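 Relative viability was taken as the ratio of nuclei in treated wells to nuclei in vehicle wells. Lung cancer cell lines in 1536-well plates received compounds by pin tool one day after seeding, either one drug alone or a fixed anchor-drug dose plus five library-drug doses (not always all listed) in √10 steps. Nuclei were counted on 4× images after 5 days of treatment, and values are medians of duplicate plates.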

| Cell Line | relative viability |
| --- | --- |
| HCC-15 | 0.928 |
| PC-3 [JPC-3] | 0.955 |
| EKVX | 1.18 |
| LC-2-ad | 0.83 |
| NCI-H1975 | 0.812 |
| SK-LU-1 | 1.09 |
| NCI-H1944 | 1.25 |
| NCI-H661 | 0.405 |
| RERF-LC-KJ | 0.949 |

The cell lines below were run with O=C(/C=C/c1cccnc1)NCCCCC1CCN(C(=O)c2ccccc2)CC1 [Daporinad] + CCNC(=O)c1noc(-c2cc(C(C)C)c(O)cc2O)c1-c1ccc(CN2CCOCC2)cc1 [Luminespib] (partner 0.01 µM) in the same assay as above. Details: first compound 0.0005 µM.
Summary of the method: as §1

| Cell Line | relative viability |
| --- | --- |
| NCI-H2009 | 1.02 |
| A-427 | 0.959 |
| NCI-H460 | 0.0254 |
| NCI-H727 | 0.257 |
| NCI-H1734 | 0.233 |
| NCI-H520 | 0.235 |
| NCI-H2347 | 0.607 |
| SW 1573 | 0.207 |
| NCI-H1395 | 0.774 |
| 201T | 1.04 |
| NCI-H1915 | 0.893 |
| HCC-827 | 0.639 |
| LXF-289 | 0.668 |
| NCI-H23 | 0.197 |
| NCI-H650 | 0.82 |
| CAL-12T | 0.17 |
| NCI-H1651 | 0.829 |

| Cell Line | relative viability |
| --- | --- |
| EPLC-272H | 0.237 |
| NCI-H2228 | 0.17 |
| NCI-H1355 | 0.79 |
| NCI-H3122 | 0.0688 |
| NCI-H1437 | 1.14 |
| NCI-H1755 | 0.31 |
| NCI-H2023 | 0.727 |
| HCC-15 | 0.309 |
| PC-3 [JPC-3] | 0.68 |
| EKVX | 0.889 |
| LC-2-ad | 0.99 |
| NCI-H1975 | 0.206 |
| SK-LU-1 | 0.193 |
| NCI-H1944 | 0.85 |
| NCI-H661 | 0.936 |
| RERF-LC-KJ | 1.22 |

Same assay, conditions: first compound 0.001581 µM

| Cell Line | relative viability |
| --- | --- |
| NCI-H2009 | 1.08 |
| A-427 | 0.953 |
| NCI-H460 | 0.0436 |
| NCI-H727 | 0.27 |
| NCI-H1734 | 0.187 |
| NCI-H520 | 0.193 |
| NCI-H2347 | 0.43 |
| SW 1573 | 0.737 |
| NCI-H1395 | 0.657 |
| 201T | 1.02 |
| NCI-H1915 | 0.703 |
| HCC-827 | 0.747 |
| LXF-289 | 0.75 |
| NCI-H23 | 0.231 |
| NCI-H650 | 0.825 |
| CAL-12T | 0.41 |
| NCI-H1651 | 0.676 |

| Cell Line | relative viability |
| --- | --- |
| EPLC-272H | 0.433 |
| NCI-H2228 | 0.173 |
| NCI-H1792 | 0.443 |
| NCI-H1355 | 0.793 |
| NCI-H3122 | 0.0544 |
| NCI-H1437 | 1.16 |
| NCI-H1755 | 0.381 |
| NCI-H2023 | 0.759 |
| HCC-15 | 0.446 |
| PC-3 [JPC-3] | 0.677 |
| EKVX | 0.933 |
| LC-2-ad | 1.11 |
| NCI-H1975 | 0.262 |
| SK-LU-1 | 0.204 |
| NCI-H1944 | 0.802 |
| NCI-H661 | 0.873 |
| RERF-LC-KJ | 1.4 |

Same assay, conditions: first compound 0.005 µM

| Cell Line | relative viability |
| --- | --- |
| NCI-H2009 | 1 |
| A-427 | 0.742 |
| NCI-H460 | 0.0289 |
| NCI-H727 | 0.37 |
| NCI-H1734 | 0.185 |
| NCI-H520 | 0.197 |
| NCI-H2347 | 0.322 |
| SW 1573 | 0.207 |
| NCI-H1395 | 0.722 |
| 201T | 1.12 |
| NCI-H1915 | 0.786 |
| HCC-827 | 0.704 |
| LXF-289 | 0.766 |
| NCI-H23 | 0.203 |
| NCI-H650 | 0.734 |
| CAL-12T | 0.545 |
| NCI-H1651 | 0.805 |

| Cell Line | relative viability |
| --- | --- |
| EPLC-272H | 0.388 |
| NCI-H2228 | 0.221 |
| NCI-H1792 | 0.347 |
| NCI-H1355 | 0.752 |
| NCI-H3122 | 0.0785 |
| NCI-H1437 | 1.15 |
| NCI-H1755 | 0.541 |
| NCI-H2023 | 0.918 |
| HCC-15 | 0.372 |
| PC-3 [JPC-3] | 0.73 |
| EKVX | 0.839 |
| LC-2-ad | 1.19 |
| NCI-H1975 | 0.183 |
| SK-LU-1 | 0.227 |
| NCI-H1944 | 0.829 |
| NCI-H661 | 0.558 |
| RERF-LC-KJ | 1.18 |

Same assay, conditions: first compound 0.01581 µM

| Cell Line | relative viability |
| --- | --- |
| NCI-H2009 | 0.702 |
| A-427 | 0.671 |
| NCI-H460 | 0.0343 |
| NCI-H727 | 0.195 |
| NCI-H1734 | 0.228 |
| NCI-H520 | 0.195 |
| NCI-H2347 | 0.431 |
| SW 1573 | 0.296 |
| NCI-H1395 | 0.782 |
| 201T | 1.11 |
| NCI-H1915 | 0.824 |
| HCC-827 | 0.732 |
| LXF-289 | 0.657 |
| NCI-H23 | 0.215 |
| NCI-H650 | 0.953 |
| CAL-12T | 0.193 |
| NCI-H1651 | 0.67 |

| Cell Line | relative viability |
| --- | --- |
| EPLC-272H | 0.393 |
| NCI-H2228 | 0.163 |
| NCI-H1792 | 0.604 |
| NCI-H1355 | 0.81 |
| NCI-H3122 | 0.0818 |
| NCI-H1437 | 1.06 |
| NCI-H1755 | 0.488 |
| NCI-H2023 | 0.717 |
| HCC-15 | 0.329 |
| PC-3 [JPC-3] | 0.735 |
| EKVX | 0.922 |
| LC-2-ad | 0.795 |
| NCI-H1975 | 0.3 |
| SK-LU-1 | 0.225 |
| NCI-H1944 | 0.729 |
| NCI-H661 | 0.423 |
| RERF-LC-KJ | 1.07 |
